Assay results as given in patent US20240270762A1, “PENICILLIN-BINDING PROTEIN INHIBITORS” (priority 2021, published 2024).
Converted amounts (≈) assume the structure as drawn. Read-outs that look alike come from different tables or passages of the source.

What was measured:
N. gonorrhoeae WHO X = assay: Liquid broth MIC in Fastidious broth; settings: Neisseria gonorrhoeae
N. gonorrhoeae WHO Q = assay: Liquid broth MIC in Fastidious broth; settings: Neisseria gonorrhoeae
N. gonorrhoeae WHO M = assay: Liquid broth MIC in Fastidious broth; settings: Neisseria gonorrhoeae
Description: Liquid broth-based assays were used for antibacterial testing of PBP inhibitors in Neisseria gonorrhoeae. Briefly, cryo-preserved bacterial cultures of clinical strains were streaked for isolation on Chocolate Agar (72 g/L (2×) GC Agar Base (BD #228950) and 2% (2×) Hemoglobin was autoclaved at 121° C. for 20 minutes to sterilize. Once cooled to ˜50° C. the 2×GC Agar Base and 2× Hemoglobin solutions are combined and 1% IsoVitaleX Enrichment (BD #211876) was added to the solution). Strains were incubated at 36° C. and 5% CO2 to allow growth of colonies, 24 hours before inoculum preparation. 2-fold serial dilutions of test compounds were conducted in a 96 well plate with a final volume of 75 μL per well at 2-fold the final desired concentration in Fastidious broth (Remel #R07664). For preparation of assay inoculum, a direct suspension was prepared by aseptically swabbing 10-15 colonies from agar plates into culture tubes containing 2 mL of fresh sterile saline. After the dilution plates were set up, direct suspensions were then diluted in a cuvette containing sterile saline and the optical density was measured at 600 nm. Inocula were diluted such that 75 μL of this culture in Fastidious broth results in a starting bacterial concentration of 5×10^5 CFU/mL when added to the dilution plates. The plates were incubated for ˜24 hours at 36° C. and 5% CO2.

N. gonorrhoeae MS11 = assay: Liquid broth MIC in Fastidious broth; settings: Neisseria gonorrhoeae
N. gonorrhoeae WHO G = assay: Liquid broth MIC in Fastidious broth; settings: Neisseria gonorrhoeae
N. gonorrhoeae FA1090 = assay: Liquid broth MIC in Fastidious broth; settings: Neisseria gonorrhoeae
N. gonorrhoeae CDC-0197 = assay: Liquid broth MIC in Fastidious broth; settings: Neisseria gonorrhoeae
[1] = target: T1, PBP1a from Acinetobacter baumannii (ATCC 19606) (Acinetobacter baumannii, UniProt A0ABX6CK30); assay: Bocillin-FL fluorescence polarization competition binding, A. baumannii PBP1a; settings: fluorescence polarization competition binding assay using Bocillin-FL; read-out: A. baumannii PBP1a Potency
T1 sequence (A0ABX6CK30 1-851): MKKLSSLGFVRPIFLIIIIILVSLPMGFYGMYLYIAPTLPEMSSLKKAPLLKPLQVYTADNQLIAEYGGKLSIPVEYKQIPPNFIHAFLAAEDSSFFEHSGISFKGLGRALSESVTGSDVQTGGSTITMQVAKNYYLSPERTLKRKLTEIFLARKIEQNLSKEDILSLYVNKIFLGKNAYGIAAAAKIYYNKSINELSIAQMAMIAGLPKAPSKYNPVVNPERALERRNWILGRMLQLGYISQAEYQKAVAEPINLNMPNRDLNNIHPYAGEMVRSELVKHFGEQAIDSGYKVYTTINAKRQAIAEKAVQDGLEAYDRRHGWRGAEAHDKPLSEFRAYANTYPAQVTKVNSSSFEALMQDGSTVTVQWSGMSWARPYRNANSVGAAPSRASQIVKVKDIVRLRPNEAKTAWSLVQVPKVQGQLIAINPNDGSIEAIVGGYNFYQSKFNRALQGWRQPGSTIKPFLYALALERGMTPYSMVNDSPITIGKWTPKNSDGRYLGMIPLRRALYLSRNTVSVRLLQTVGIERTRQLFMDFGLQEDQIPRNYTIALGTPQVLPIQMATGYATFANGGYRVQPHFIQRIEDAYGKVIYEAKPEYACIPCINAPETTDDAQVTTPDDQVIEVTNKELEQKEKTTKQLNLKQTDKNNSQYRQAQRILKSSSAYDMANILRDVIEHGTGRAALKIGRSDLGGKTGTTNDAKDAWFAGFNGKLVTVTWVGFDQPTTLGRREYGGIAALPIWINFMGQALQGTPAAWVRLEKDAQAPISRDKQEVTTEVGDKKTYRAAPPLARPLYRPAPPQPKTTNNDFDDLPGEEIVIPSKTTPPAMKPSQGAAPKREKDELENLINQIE
How it was run: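 Purified PBPs pre-incubated with inhibitor (E. coli PBP3 1.5 μM, 30 min; P. aeruginosa PBP3 0.75 μM, A. baumannii PBP1a 1 μM and PBP3 0.2 μM, 15 min), then Bocillin-FL 0.1 μM (0.05 μM for PBP1a) added; FP read up to 60 min. EC50 = concentration halving bound Bocillin-FL.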

[2] = read-out: Minimum Inhibitory Concentration (MIC), N. gonorrhoeae WHO X
[3] = read-out: Minimum Inhibitory Concentration (MIC), N. gonorrhoeae WHO Q
[4] = read-out: Minimum Inhibitory Concentration (MIC), N. gonorrhoeae WHO M
[5] = MS11, read-out: Minimum Inhibitory Concentration (MIC), N. gonorrhoeae MS11
[6] = read-out: Minimum Inhibitory Concentration (MIC), N. gonorrhoeae WHO G
[7] = FA1090, read-out: Minimum Inhibitory Concentration (MIC), N. gonorrhoeae FA 1090
[8] = CDC0197, read-out: Minimum Inhibitory Concentration (MIC), N. gonorrhoeae CDC-0197
[9] = read-out: Minimum Inhibitory Concentration, WHO X
[10] = read-out: Minimum Inhibitory Concentration, WHO Q
[11] = read-out: Minimum Inhibitory Concentration, WHO M
[12] = MS11, read-out: Minimum Inhibitory Concentration, MS11
[13] = read-out: Minimum Inhibitory Concentration, WHO G
[14] = FA1090, read-out: Minimum Inhibitory Concentration, FA 1090
[15] = CDC0197, read-out: Minimum Inhibitory Concentration, CDC-0197

| Compound | MIC (N. gonorrhoeae WHO X; [2]) [mg/L] | MIC (N. gonorrhoeae WHO Q; [3]) [mg/L] | MIC (N. gonorrhoeae WHO M; [4]) [mg/L] | MIC (N. gonorrhoeae MS11; [5]) [mg/L] | MIC (N. gonorrhoeae WHO G; [6]) [mg/L] | MIC (N. gonorrhoeae FA1090; [7]) [mg/L] | MIC (N. gonorrhoeae CDC-0197; [8]) [mg/L] | IC50 [1] [µM] | MIC (N. gonorrhoeae WHO X; [9]) [mg/L] | MIC (N. gonorrhoeae WHO Q; [10]) [mg/L] | MIC (N. gonorrhoeae WHO M; [11]) [mg/L] | MIC (N. gonorrhoeae MS11; [12]) [mg/L] | MIC (N. gonorrhoeae WHO G; [13]) [mg/L] | MIC (N. gonorrhoeae FA1090; [14]) [mg/L] | MIC (N. gonorrhoeae CDC-0197; [15]) [mg/L] |
| --- | --- | --- | --- | --- | --- | --- | --- | --- | --- | --- | --- | --- | --- | --- | --- |
| CS(=O)(=O)N1CCN(C(=O)N[C@H](C(=O)N[C@H]2Cc3cccc(C(=O)O)c3OB2O)c2ccc(P(=O)(O)O)cc2)C1=O (single isomer, unassigned) [Example 5] | 4 to 8 (≈ 6.55 to 13.1 µM) | < 1 | < 1 | < 1 | < 1 | < 1 | < 1 |  |  |  |  |  |  |  |  |
| CS(=O)(=O)N1CCN(C(=O)N[C@@H](C(=O)N[C@H]2Cc3cccc(C(=O)O)c3OB2O)c2ccc(P(=O)(O)O)cc2)C1=O (single isomer, unassigned) [Example 6] | < 1 | < 1 | < 1 | < 1 | < 1 | < 1 | < 1 |  |  |  |  |  |  |  |  |
| CCN1CCN(C(=O)NC(C(=O)N[C@H]2Cc3cccc(C(=O)O)c3OB2O)c2ccc(P(=O)(O)O)cc2F)C(=O)C1=O (stereo partly drawn) [Example 1, (3R)-3-(2-(4-ethyl-2,3-dioxopiperazine-1-carboxamido)-2-(2-fluoro-4-phosphonophenyl)acetamido)-2-hydroxy-3,4-dihydro-2H-benzo[e][1,2]oxaborinine-8-carboxylic acid] | 1 to 2 (≈ 1.65 to 3.3 µM) | < 1 | < 1 | < 1 | < 1 | < 1 | < 1 |  |  |  |  |  |  |  |  |
| CCN1CCN(C(=O)NC(C(=O)N[C@H]2Cc3cccc(C(=O)O)c3OB2O)c2cc(P(=O)(O)O)ccc2F)C(=O)C1=O (stereo partly drawn) [Example 2, (3R)-3-(2-(4-ethyl-2,3-dioxopiperazine-1-carboxamido)-2-(2-fluoro-5-phosphonophenyl)acetamido)-2-hydroxy-3,4-dihydro-2H-benzo[e][1,2]oxaborinine-8-carboxylic acid] | 16 to 32 (≈ 26.4 to 52.8 µM) | 4 to 8 (≈ 6.6 to 13.2 µM) | 4 to 8 (≈ 6.6 to 13.2 µM) | 4 to 8 (≈ 6.6 to 13.2 µM) | 1 to 2 (≈ 1.65 to 3.3 µM) | < 1 | 4 to 8 (≈ 6.6 to 13.2 µM) |  |  |  |  |  |  |  |  |
| NCCN1CCN(C(=O)NC(C(=O)N[C@H]2Cc3cccc(C(=O)O)c3OB2O)c2ccc(P(=O)(O)O)cc2)C(=O)C1=O (stereo partly drawn) [Example 3, (3R)-3-(2-(4-(2-aminoethyl)-2,3-dioxopiperazine-1-carboxamido)-2-(4-phosphonophenyl)acetamido)-2-hydroxy-3,4-dihydro-2H-benzo[e][1,2]oxaborinine-8-carboxylic acid] | 4 to 8 (≈ 6.63 to 13.3 µM) | 1 to 2 (≈ 1.66 to 3.32 µM) | < 1 | 1 to 2 (≈ 1.66 to 3.32 µM) | < 1 | < 1 | 1 to 2 (≈ 1.66 to 3.32 µM) |  |  |  |  |  |  |  |  |
| O=C(O)c1cccc2c1OB(O)[C@@H](NC(=O)C(NC(=O)N1CCN(CC(F)(F)F)C(=O)C1=O)c1ccc(P(=O)(O)O)cc1)C2 (stereo partly drawn) [Example 4, (3R)-3-(2-(2,3-dioxo-4-(2,2,2-trifluoroethyl)piperazine-1-carboxamido)-2-(4-phosphonophenyl)acetamido)-2-hydroxy-3,4-dihydro-2H-benzo[e][1,2]oxaborinine-8-carboxylic acid] | 4 to 8 (≈ 6.23 to 12.5 µM) | 1 to 2 (≈ 1.56 to 3.11 µM) | < 1 | < 1 | < 1 | < 1 | 1 to 2 (≈ 1.56 to 3.11 µM) |  |  |  |  |  |  |  |  |
| O=C(NCCCS(=O)(=O)N1CCN(C(=O)NC(C(=O)N[C@H]2Cc3ccc(F)c(C(=O)O)c3OB2O)c2cc(F)c(O)c(O)c2Cl)C1=O)Nc1cccc(O)c1 (stereo partly drawn) [Example 277, (3R)-3-(2-(2-chloro-5-fluoro-3,4-dihydroxyphenyl)-2-(3-((3-(3-(3-hydroxyphenyl)ureido)propyl)sulfonyl)-2-oxoimidazolidine-1-carboxamido)acetamido)-7-fluoro-2-hydroxy-3,4-dihydro-2H-benzo[e][1,2]oxaborinine-8-carboxylic acid] |  |  |  |  |  |  |  | > 250 | > 64 | 16 to 32 (≈ 19.7 to 39.5 µM) | 16 to 32 (≈ 19.7 to 39.5 µM) | 16 to 32 (≈ 19.7 to 39.5 µM) | 16 to 32 (≈ 19.7 to 39.5 µM) | 1 to 2 (≈ 1.23 to 2.47 µM) | 16 to 32 (≈ 19.7 to 39.5 µM) |
| O=C(NCCCS(=O)(=O)N1CCN(C(=O)NC(C(=O)N[C@H]2Cc3ccc(F)c(C(=O)O)c3OB2O)c2cc(F)c(O)c(O)c2Cl)C1=O)Nc1cccnc1 (stereo partly drawn) [Example 278, (3R)-3-(2-(2-chloro-5-fluoro-3,4-dihydroxyphenyl)-2-(2-oxo-3-((3-(3-(pyridin-3-yl)ureido)propyl)sulfonyl)imidazolidine-1-carboxamido)acetamido)-7-fluoro-2-hydroxy-3,4-dihydro-2H-benzo[e][1,2]oxaborinine-8-carboxylic acid] |  |  |  |  |  |  |  | > 250 | > 64 | 16 to 32 (≈ 20.1 to 40.2 µM) | 16 to 32 (≈ 20.1 to 40.2 µM) | 16 to 32 (≈ 20.1 to 40.2 µM) | 16 to 32 (≈ 20.1 to 40.2 µM) | 4 to 8 (≈ 5.03 to 10.1 µM) | 16 to 32 (≈ 20.1 to 40.2 µM) |
| O=C(NCCN1CCN(C(=O)N[C@@H](C(=O)N[C@H]2Cc3ccc(F)c(C(=O)O)c3OB2O)c2cc(F)c(O)c(O)c2Cl)C1=O)Nc1ccc(O)cc1 [Example 279, (R)-3-((R)-2-(2-chloro-5-fluoro-3,4-dihydroxyphenyl)-2-(3-(2-(3-(4-hydroxyphenyl)ureido)ethyl)-2-oxoimidazolidine-1-carboxamido)acetamido)-7-fluoro-2-hydroxy-3,4-dihydro-2H-benzo[e][1,2]oxaborinine-8-carboxylic acid] |  |  |  |  |  |  |  | > 250 | > 64 | 16 to 32 (≈ 21.8 to 43.7 µM) | 1 to 2 (≈ 1.36 to 2.73 µM) | 4 to 8 (≈ 5.46 to 10.9 µM) | 4 to 8 (≈ 5.46 to 10.9 µM) | < 1 | 4 to 8 (≈ 5.46 to 10.9 µM) |
| O=C(O)c1c(F)ccc2c1OB(O)[C@@H](NC(=O)C(NC(=O)N1CCN(CC3CCN(C(=O)c4cccc(O)c4)CC3)C(=O)C1=O)c1cc(F)c(O)c(O)c1Cl)C2 (stereo partly drawn) [Example 475, (3R)-3-(2-(2-chloro-5-fluoro-3,4-dihydroxyphenyl)-2-(4-((1-(3-hydroxybenzoyl)piperidin-4-yl)methyl)-2,3-dioxopiperazine-1-carboxamido)acetamido)-7-fluoro-2-hydroxy-3,4-dihydro-2H-benzo[e][1,2]oxaborinine-8-carboxylic acid] |  |  |  |  |  |  |  | > 250 |  |  |  |  |  |  |  |
| O=C(O)c1c(F)ccc2c1OB(O)[C@@H](NC(=O)C(NC(=O)N1CCN(CC3CCN(C(=O)Nc4cccc(O)c4)CC3)C(=O)C1=O)c1cc(F)c(O)c(O)c1Cl)C2 (stereo partly drawn) [Example 477, (3R)-3-(2-(2-chloro-5-fluoro-3,4-dihydroxyphenyl)-2-(4-((1-((3-hydroxyphenyl)carbamoyl)piperidin-4-yl)methyl)-2,3-dioxopiperazine-1-carboxamido)acetamido)-7-fluoro-2-hydroxy-3,4-dihydro-2H-benzo[e][1,2]oxaborinine-8-carboxylic acid] |  |  |  |  |  |  |  | > 250 |  |  |  |  |  |  |  |
| O=C(O)c1c(F)ccc2c1OB(O)[C@@H](NC(=O)C(NC(=O)N1CCN(C3CCN(C(=O)Nc4cccc(O)c4F)CC3)C(=O)C1=O)c1cc(F)c(O)c(O)c1Cl)C2 (stereo partly drawn) [Example 478, (3R)-3-(2-(2-chloro-5-fluoro-3,4-dihydroxyphenyl)-2-(4-(1-((2-fluoro-3-hydroxyphenyl)carbamoyl)piperidin-4-yl)-2,3-dioxopiperazine-1-carboxamido)acetamido)-7-fluoro-2-hydroxy-3,4-dihydro-2H-benzo[e][1,2]oxaborinine-8-carboxylic acid] |  |  |  |  |  |  |  | > 250 |  |  |  |  |  |  |  |
